# Assay results from patent US5444042A, “Method of treatment of neurodegeneration with calpain inhibitors” (Cortex Pharmaceuticals, priority 1994, dated 1995).
# Assays:
# [1] = target: T1, Calpain I (Homo sapiens, UniProt P07384); experiment: Calpain I 14C-methylated casein proteolysis (Table 1A); format: biochemical
# T1 sequence (P07384 1-714): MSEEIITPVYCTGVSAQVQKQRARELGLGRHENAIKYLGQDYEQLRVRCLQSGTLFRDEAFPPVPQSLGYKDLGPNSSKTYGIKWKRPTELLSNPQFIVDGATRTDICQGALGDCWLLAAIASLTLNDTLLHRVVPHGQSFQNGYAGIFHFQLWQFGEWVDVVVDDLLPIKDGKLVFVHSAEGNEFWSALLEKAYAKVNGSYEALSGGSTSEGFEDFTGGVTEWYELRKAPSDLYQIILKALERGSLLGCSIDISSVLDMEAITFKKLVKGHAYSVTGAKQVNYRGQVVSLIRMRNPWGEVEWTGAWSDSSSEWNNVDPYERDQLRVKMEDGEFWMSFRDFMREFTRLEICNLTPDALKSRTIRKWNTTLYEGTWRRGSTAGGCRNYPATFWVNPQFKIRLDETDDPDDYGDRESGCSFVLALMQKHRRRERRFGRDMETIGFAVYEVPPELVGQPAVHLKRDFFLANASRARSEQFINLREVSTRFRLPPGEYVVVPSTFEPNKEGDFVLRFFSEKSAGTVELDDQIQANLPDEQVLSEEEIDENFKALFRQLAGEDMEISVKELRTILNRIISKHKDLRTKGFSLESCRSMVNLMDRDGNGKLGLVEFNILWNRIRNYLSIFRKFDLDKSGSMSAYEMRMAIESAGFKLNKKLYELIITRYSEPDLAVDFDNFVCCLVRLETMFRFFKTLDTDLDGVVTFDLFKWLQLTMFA
# T1 sequence (P04632 1-268 partner): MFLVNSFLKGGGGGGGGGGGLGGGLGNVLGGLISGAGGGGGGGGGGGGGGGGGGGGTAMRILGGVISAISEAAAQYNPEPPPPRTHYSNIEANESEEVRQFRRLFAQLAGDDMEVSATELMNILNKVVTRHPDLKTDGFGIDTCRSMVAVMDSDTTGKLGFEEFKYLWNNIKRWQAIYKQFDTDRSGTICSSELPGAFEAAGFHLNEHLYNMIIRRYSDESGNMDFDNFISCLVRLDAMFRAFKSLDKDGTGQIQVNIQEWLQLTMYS
# Protocol: The isocoumarins are irreversible inhibitors of Calpain. We obtained IC50 values for a variety of these Calpain Inhibitors as a kinetic analysis of these compounds.
# Calpains I and II were purified by the method of (Yoshimura, et al. 1983). (Kitahara 1984) provides an alternative purification scheme. Calpain II may alternatively be purchased from Sigma Chemical Co. as "Calcium Activated Neutral Protease." In this assay, purified Calpain was incubated with ^14 C-methylated casein in the presence of various Heterocyclic Compounds and the amount of acid-soluble radioactivity released by the action of Calpain was measured.
# [2] = target: T1, Calpain I; experiment: Calpain I KI (Table 1B(ii)); format: biochemical; conditions: Table 1B(ii)
# Source text: (§1) We tested the ability of an additional group of Peptide Keto-Compounds to inhibit several proteases in order to evaluate their specificity for Calpain.
# [3] = target: Calpain II; experiment: Calpain II KI (Table 1B(ii)); format: biochemical
# Source text: as §1
# [4] = target: Cathepsin B (Bos taurus, UniProt P07688); experiment: Cathepsin B KI (Table 1B(ii)); format: biochemical; conditions: read-out: KI CathB
# Source text: as §1
# [5] = target: Chym (Bos taurus, UniProt P00766); experiment: Chym KI (Table 1B(ii)); format: biochemical
# Source text: as §1
# [6] = target: PP Elastase (Sus scrofa, UniProt P00772); experiment: PP Elastase KI (Table 1B(ii)); format: biochemical
# Chain of PP Elastase (P00772 27-266): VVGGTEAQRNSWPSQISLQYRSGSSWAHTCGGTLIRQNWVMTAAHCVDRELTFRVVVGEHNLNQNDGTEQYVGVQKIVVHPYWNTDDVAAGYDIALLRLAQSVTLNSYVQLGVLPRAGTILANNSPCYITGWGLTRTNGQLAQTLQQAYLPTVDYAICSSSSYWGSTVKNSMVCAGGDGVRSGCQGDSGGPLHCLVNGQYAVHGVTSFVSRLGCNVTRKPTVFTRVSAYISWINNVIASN
# Source text: as §1
# [7] = target: T2, Papain (Carica papaya, UniProt P00784); experiment: Papain KI (Table 1B(ii)); format: biochemical
# T2 sequence (P00784 134-345): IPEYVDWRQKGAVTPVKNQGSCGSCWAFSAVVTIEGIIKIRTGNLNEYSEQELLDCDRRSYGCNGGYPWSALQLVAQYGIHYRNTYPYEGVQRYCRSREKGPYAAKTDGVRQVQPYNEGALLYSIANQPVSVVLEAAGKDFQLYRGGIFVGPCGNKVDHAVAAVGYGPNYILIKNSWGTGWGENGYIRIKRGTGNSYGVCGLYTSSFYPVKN
# Source text: as §1
# [8] = tested on: Calpain within platelets; experiment: Platelet membrane permeation assay, spectrin proteolysis (Examples 4A, 4B); format: cell-based, rat; conditions: for inhibition of Calpain within platelets / platelet assay, semi-quantitative: 100 μM; for inhibition of Calpain within platelets: A23187 1 μM; for IC50: concentration at which 50% of the Calpain activation present in controls occurred
# Protocol: Platelets were isolated by a modification of the method of Ferrell and Martin, J Biol. Chem., 264:20723-20729 (1989), the disclosure of which is hereby incorporated by reference. Blood (15-20 ml) was drawn from male Sprague-Dawley rats into 100 mM EDTA-citrate containing 10 units heparin, and centrifuged 30 minutes at 1600 rpm at room temperature. The plasma was resuspended in 15 ml buffer 1 (136 mM NaCl, 2.7 mM KCl, 0.42 mM NaH2 PO4, 12 mM NaHCO3, 2 mM MgCl2, 2 mg/ml BSA (Sigma), 5.6 mM glucose, 22 mM Na3 Citrate pH 6.5) and platelets were isolated at 2200 rpm at room temperature of 25 minutes. Platelets were resuspended to 10^7 cells/ml in buffer 2 (136 mM NaCl, 2.7 mM KCl, 0.42 NaH2 PO4, 12 mM NaHCO3, 2 mM MgCl, 1 mg/ml BSA, 5.6 mM glucose, 20 mM HEPES pH 7.4) and allowed to "rest" for a minimum of 10 minutes at room temperature before use.
# Platelets were incubated for 5 minutes in the presence of inhibitor. In order to provide sufficient intracellular calcium to activate Calpain, the calcium ionophore A23187 was added to a final concentration of 1 μM. After a further 5 minute incubation, the platelets were harvested by centrifugation (1 min 10,000×g) and resuspended in 10% sodium dodecyl sulfate, 10 mM Tris pH=8.0, 5% β-mercaptoethanol, 0.02% bromophenol blue, and heated to 95° C. for 5 min. Samples were subjected to SDS-PAGE on 6% mini gels and transferred to nitrocellulose (Schleicher and Schuell BAS3) for 2 hours at 100 mA/gel in an LKB Novablot. Filters were blocked for 10 minutes in 0.25% gelatin, 1% BSA, 0.25% Triton X100, 0.9% NaCl, 10 mM Tris-Cl pH 7.5, incubated overnight in the same solution containing antibody to rat spectrin, washed 3×10 minutes with 10 mM Tris-Cl pH 7.5, 0.5 % Triton X100, incubated 4 hours in wash buffer plus alkaline phosphatase conjugated goat anti-rabbit antibody (Biorad), and washed as above. Filters were developed using the Biorad AP conjugate substrate kit. Spectrin immunoreactivity on the filters was quantitated by densitometry.
# [9] = Stability in plasma; format: in vitro ADME; conditions: unit assumed
# Source text: (§2) We determined the haft-life of several Peptide Keto-Compounds in both plasma and liver homogenates.
# [10] = Stability in liver homogenates; format: in vitro ADME; conditions: unit assumed
# Source text: as §2
# [11] = tested on: Calpain in crude brain extracts; experiment: Ca2+-stimulated spectrin proteolysis in crude brain extracts (Example 2); format: biochemical; conditions: 100 μM
# Protocol: The activity of Calpain in crude brain extracts was measured by examining the Ca^2+ -stimulated proteolysis of the endogenous substrate spectrin. Brain tissue was homogenized in 10 mM Tris pH=7.4, 0.32M sucrose, 1 mM EGTA, 1 mM dithiothreitol and the nuclei and debris removed by low speed centrifugation. […] Proteolysis of spectrin was evaluated by western blot as described by Seubert, et at. (Brain Research, 459:226-232, 1988), the disclosure of which is hereby incorporated by reference. Briefly, a known quantity of a spectrin-containing sample treated with Calpain is separated by SDS-PAGE and immunoblotted with anti-spectrin antibody. The amount of spectrin immunoreactivity found corresponding to the characteristic BDP's is indicative of the amount of […] activity present in the sample. An examplary method for quantitating BDP's is to assay Spectrin BDP's by homogenizing brain parts in 20 mM Tris pH=7.2, 0.32M sucrose, 50 μM Ac-Leu-Leu-nLeu-H on ice. Homogenates are then mixed 1:1 with 10% SDS, 5% β-mercaptoethanol, 10% glycerol, 10 mM Tris pH=8.0, 0.5% bromophenolblue, heated to 95° C., and subjected to electrophoresis in 41/2% polyacrylamide gels. The proteins in the gels are transferred to nitrocellulose and the spectrin and BDP's detected using a rabbit polyclonal anti-spectrin antibody and established immunodetection methods. The amount of spectrin and BDP's in each sample can be quantitated by densitrometric scanning of the developed nitrocellulose.
Molecule,IC50 [1] [µM],Ki [2] [µM],Ki [3] [µM],Ki [4] [µM],Ki [5] [µM],Ki [6] [µM],Ki [7] [µM],inhibition of Calpain within platelets [8],"platelet assay, semi-quantitative [8]",t1/2 plasma [9] [h],t1/2 liver [10] [h],IC50 [8] [µM],inhibition of spectrin proteolysis in crude brain extracts [11]
"N=C(N)SCCOc1oc(=O)c2cc(NC(=O)Cc3ccccc3)ccc2c1Cl [PhCH2 CONH-CiTEtOIC, 7-(phenylacetylamino)-4-chloro-3-(2-isothiureidoethoxy)isocoumarin]",30,–,–,–,–,–,–,–,–,–,–,–,–
CCOC(=O)C(=O)C(Cc1ccc(Cl)cc1)NC(=O)C(CC(C)C)NC(=O)OCc1ccccc1 (centres unmarked) [Z-Leu-4-Cl-Phe-COOEt],–,< 4,0.4,50,0.9,> 100,150,significant inhibition,+,–,–,–,–
"CCC(NC(=O)C(CC(C)C)NC(=O)OCc1ccccc1)C(=O)C(=O)NCc1ccccc1 (stereo not drawn) [Z-Leu-Abu-CONHBz, Z-Leu-Abu-CONH-Bzl]",–,–,0.35,2,> 300,–,–,–,–,> 1,> 1,1.5,–
"CCCCNC(=O)C(=O)C(CC)NC(=O)C(CC(C)C)NC(=O)OCc1ccccc1 (stereo not drawn) [Z-Leu-Abu-CONHnBu, Z-Leu-Abu-CONH-nBu]",–,0.2,–,13,> 300,5,–,–,–,> 1,> 1,2,–
"CCCNC(=O)C(=O)[C@H](CC)NC(=O)[C@H](CC(C)C)NC(=O)OCc1ccccc1 [Z-Leu-Abu-CONHnPr, Z-Leu-Abu-CONH-nPr]",–,–,0.25,8,> 300,2,–,–,–,> 1,> 1,70,–
CCC(NC(=O)C(CC(C)C)NC(=O)OCc1ccccc1)C(=O)C(=O)O (stereo not drawn) [Z-Leu-Abu-COOH],–,0.075,0.022,1.5,> 150,> 150,–,significant inhibition,–,> 1,> 1,8,–
"CCCCOC(=O)C(=O)C(CC)NC(=O)C(CC(C)C)NC(=O)OCc1ccccc1 (stereo not drawn) [Z-Leu-Abu-COOnBu, Z-Leu-Abu-CO2 Bu]",–,–,–,4,> 100,25,10,significant inhibition,–,–,–,28,–
CCOC(=O)C(=O)[C@H](Cc1ccccc1)NC(=O)[C@H](CC(C)C)NC(=O)[C@H](CC(C)C)NC(=O)OCc1ccccc1 [Z-Leu-Leu-Phe-COOEt],–,1.4,1.9,42,0.26,> 100,15,significant inhibition,++,–,–,–,–
"CCCCNC(=O)C(=O)C(Cc1ccccc1)NC(=O)C(CC(C)C)NC(=O)OCc1ccccc1 (stereo not drawn) [Z-Leu-Phe-CONHnBu, Z-Leu-Phe-CONH-nBu]",–,–,0.028,3,8,> 100,–,–,–,> 1,> 1,38,–
"CCCNC(=O)C(=O)C(Cc1ccccc1)NC(=O)C(CC(C)C)NC(=O)OCc1ccccc1 (stereo not drawn) [Z-Leu-Phe-CONHnPr, Z-Leu-Phe-CONH-nPr]",–,15,0.05,3,18,> 300,–,–,–,> 1,> 1,24,–
"CC(C)C[C@H](NC(=O)OCc1ccccc1)C(=O)N[C@@H](Cc1ccccc1)C(=O)C(=O)OCc1ccccc1 [Z-Leu-Phe-COOBz, Z-Leu-Phe-CO2 Bzl]",–,3.4,1.6,45,1.6,> 100,45,significant inhibition,++,0.0317,–,–,–
CC(C)CC(NC(=O)OCc1ccccc1)C(=O)NC(Cc1ccccc1)C(=O)C(=O)O (stereo not drawn) [Z-Leu-Phe-COOH],–,0.0085,0.0057,4.5,76,> 150,–,significant inhibition,–,> 1,> 1,6.5,–
Z-Leu-Met-CO2 Et [Z-Leu-Met-COOEt],–,1,1.5,55,1.75,> 100,140,significant inhibition,+,0.133,–,–,significant inhibition
